According to patent US20250249056A1, “CANCER THERAPIES COMPRISING A NUCLEAR EXPORT INHIBITOR AND AN ONCOLYTIC VIRUS” (priority 2022, published 2025):

Tested on: Colo205 cells
Format: cell-based, human
Conditions: selinexor-treated cytoplasm vs control cytoplasm

O=C(/C=C\n1cnc(-c2cc(C(F)(F)F)cc(C(F)(F)F)c2)n1)NNc1cnccn1 [selinexor]
Differential protein expression, PLEKHS1 (Q5SXH7): 2.039
Differential protein expression, RSBN1 (Q5VWQ0): 100
Differential protein expression, ZMYM4 (Q5VZL5): 0.01
Differential protein expression, RPL7L1 (Q6DKI1): 0.463
Differential protein expression, DMKN (Q6E0U4): 0.02
Differential protein expression, NCAPH2 (Q6IBW4): 0.01
Differential protein expression, LIN54 (Q6MZP7): 0.426
Differential protein expression, POMZP3 (Q6PJE2): 100
Differential protein expression, CCDC137 (Q6PK04): 0.426
Differential protein expression, MPRIP (Q6WCQ1): 0.01
Differential protein expression, NCCRP1 (Q6ZVX7): 2.342
Differential protein expression, LPCAT2 (Q7L5N7): 2.194
Differential protein expression, CXXC5 (Q7LFL8): 0.01
Differential protein expression, KRT74 (Q7RTS7): 4.935
Differential protein expression, KRT28 (Q7Z3Y7): 2.439
Differential protein expression, KRT27 (Q7Z3Y8): 2.607
Differential protein expression, KRT25 (Q7Z3Z0): 2.607
Differential protein expression, MYH14 (Q7Z406): 2.01
Differential protein expression, KRT78 (Q8N1N4): 2.84
Differential protein expression, PIAS4 (Q8N2W9): 0.01
Differential protein expression, GPATCH11 (Q8N954): 100
Differential protein expression, KDM1B (Q8NB78): 0.01
Differential protein expression, RNF169 (Q8NCN4): 100
Differential protein expression, PHC3 (Q8NDX5): 100
Differential protein expression, PPHLN1 (Q8NEY8): 0.01
Differential protein expression, GDAP1 (Q8TB36): 2.559
Differential protein expression, CIP2A (Q8TCG1): 0.239
Differential protein expression, CHD6 (Q8TD26): 0.01
Differential protein expression, GPT2 (Q8TD30): 0.411
Differential protein expression, RB1CC1 (Q8TDY2): 100
Differential protein expression, ZNF384 (Q8TF68): 0.01
Differential protein expression, U2AF1L4 (Q8WU68): 2.738
Differential protein expression, TSEN15 (Q8WW01): 0.497
Differential protein expression, NIPSNAP1 (Q9BPW8): 0.499
Differential protein expression, SH2D3A (Q9BRG2): 100
Differential protein expression, WDR83 (Q9BRX9): 100
Differential protein expression, TPPP3 (Q9BW30): 2.408
Differential protein expression, LSM14B (Q9BX40): 0.437
Differential protein expression, TTYH3 (Q9C0H2): 0.47
Differential protein expression, BRD8 (Q9H0E9): 0.01
Differential protein expression, WWP1 (Q9H0M0): 2.549
Differential protein expression, TASP1 (Q9H6P5): 100
Differential protein expression, RPF2 (Q9H7B2): 2.588
Differential protein expression, CAAP1 (Q9H8G2): 100
Differential protein expression, BRD9 (Q9H8M2): 0.01
Differential protein expression, ING2 (Q9H160): 100
Differential protein expression, SDCBP2 (Q9H190): 2.885
Differential protein expression, EPB41L4B (Q9H329): 2.055
Differential protein expression, FOXP1 (Q9H334): 0.01
Differential protein expression, SP110 (Q9HB58): 0.01
Differential protein expression, PATZ1 (Q9HBE1): 100
Differential protein expression, SPC25 (Q9HBM1): 0.479
Differential protein expression, AGO4 (Q9HCK5): 2.165
Differential protein expression, TCF7L1 (Q9HCS4): 5.627
Differential protein expression, MLXIPL (Q9NP71): 0.379
Differential protein expression, TCF7L2 (Q9NQB0): 0.01
Differential protein expression, STRN4 (Q9NRL3): 100
Differential protein expression, RAD18 (Q9NS91): 100
Differential protein expression, DIAPH3 (Q9NSV4): 0.233
Differential protein expression, MBNL3 (Q9NUK0): 2.509
Differential protein expression, MRGBP (Q9NV56): 100
Differential protein expression, EXD2 (Q9NVH0): 2.016
Differential protein expression, ASF1B (Q9NVP2): 0.458
Differential protein expression, SDHAF2 (Q9NX18): 0.346
Differential protein expression, EHF (Q9NZC4): 0.01
Differential protein expression, MACROH2A2 (Q9P0M6): 100
Differential protein expression, SENP1 (Q9POU3): 0.01
Differential protein expression, m101L (Q9Q8J9): 2.679
Differential protein expression, m097R (Q9Q8K3): 100
Differential protein expression, m094R (Q9Q8K6): 0.01
Differential protein expression, m089L (Q9Q8L1): 0.01
Differential protein expression, m048L (Q9Q8P8): 2.287
Differential protein expression, m043L (Q9Q8Q3): 0.01
Differential protein expression, m042L (Q9Q8Q4): 0.01
Differential protein expression, m032R (Q9Q8R4): 100
Differential protein expression, DNAJB4 (Q9UDY4): 3.313
Differential protein expression, DAXX (Q9UER7): 100
Differential protein expression, MLX (Q9UH92): 0.453
Differential protein expression, ADGRE2 (Q9UHX3): 0.491
Differential protein expression, RASAL2 (Q9UJF2): 0.01
Differential protein expression, LEF1 (Q9UJU2): 5.627
Differential protein expression, ANAPC2 (Q9UJX6): 0.336
Differential protein expression, GGA2 (Q9UJY4): 0.442
Differential protein expression, CCNL1 (Q9UK58): 3.386
Differential protein expression, RALY (Q9UKM9): 2.03
Differential protein expression, YEATS2 (Q9ULM3): 100
Differential protein expression, NOB1 (Q9ULX3): 0.407
Differential protein expression, FZR1 (Q9UM11): 4.964
Differential protein expression, NOL7 (Q9UMY1): 0.431
Differential protein expression, LIMCH1 (Q9UPQ0): 0.01
Differential protein expression, AGAP1 (Q9UPQ3): 2.271
Differential protein expression, DNM3 (Q9UQ16): 100
Differential protein expression, JRKL (Q9Y4A0): 0.474
Differential protein expression, DCAF1 (Q9Y4B6): 0.482
Differential protein expression, UTP18 (Q9Y5J1): 0.493
Differential protein expression, ST14 (Q9Y5Y6): 2.934
Differential protein expression, RBMX2 (Q9Y388): 100
Differential protein expression, PSAT1 (Q9Y617): 0.469
Differential protein expression, SLC12A7 (Q9Y666): 0.497
Differential protein expression, mt6 (Q9YQ03): 0.01
Differential protein expression, GLE1 (Q53GS7): 0.329
Differential protein expression, INO80D (Q53TQ3): 100
Differential protein expression, NAIF1 (Q69Y17): 0.374
Differential protein expression, H3C13; H3C14; H3C15 (Q71DI3): 3.19
Differential protein expression, TADA2B (Q86TJ2): 0.246
Differential protein expression, RPS19BP1 (Q86WX3): 0.426
Differential protein expression, KRT73 (Q86Y46): 4.935
Differential protein expression, PBXIP1 (Q96AQ6): 2.168
Differential protein expression, INTS12 (Q96CB8): 100
Differential protein expression, LRRC58 (Q96CX6): 3.753
Differential protein expression, RBMXL1 (Q96E39): 100
Differential protein expression, MCRS1 (Q96EZ8): 0.01
Differential protein expression, PERP (Q96FX8): 2.002
Differential protein expression, LTV1 (Q96GA3): 0.288
Differential protein expression, SMARCD1 (Q96GM5): 0.376
Differential protein expression, ZNF668 (Q96K58): 0.01
Differential protein expression, RNPC3 (Q96LT9): 100
Differential protein expression, PWWP2A (Q96N64): 0.01
Differential protein expression, SERPINB12 (Q96P63): 3.145
Differential protein expression, SLC38A2 (Q96QD8): 0.262
Differential protein expression, PHF12 (Q96QT6): 100
Differential protein expression, SMC6 (Q96SB8): 0.01
Differential protein expression, CDK3 (Q00526): 0.01
Differential protein expression, ARL11 (Q969Q4): 2.014
Differential protein expression, U2AF1 (Q01081): 2.205
Differential protein expression, KRT76 (Q01546): 2.236
Differential protein expression, SP2 (Q02086): 0.01
Differential protein expression, PCDH1 (Q08174): 3.649
Differential protein expression, DSC1 (Q08554): 2.044
Differential protein expression, CDH17 (Q12864): 5.81
Differential protein expression, PRDM2 (Q13029): 0.499
Differential protein expression, KRR1 (Q13601): 2.698
Differential protein expression, AAMP (Q13685): 0.385
Differential protein expression, RUNX2 (Q13950): 0.192
Differential protein expression, CDK13 (Q14004): 2.192
Differential protein expression, TFDP2 (Q14188): 0.48
